Measurements: patent US9499550B2 (BRISTOL-MYERS SQUIBB COMPANY, priority 2012, dated 2016)
Like-named read-outs stand apart in the source and are kept apart here.

Assays:
[1] = tested on: HCV genotype 1a (H77 strain) replicon in HUH-7 cells; experiment: HCV replicon luciferase reporter assay, genotype 1a; assay type: cell-based; settings: Hepatitis C virus, Huh-7, 72 h, HCV genotype 1a replicon luciferase, 3 days incubation
Procedure, shortened: (§1)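 Replicon inhibition for both genotypes was measured as Renilla luciferase signal (EnduRen, 7.5 μM final, 2 h) after 3-day, 37° C exposure of replicon-bearing HUH-7 cells in 4% FCS DMEM, 0.5% DMSO. The 1b construct carries S1179I; the 1a H77 construct carries P1496L and S2204I. Twenty-point, 3-fold dilutions were fitted four-parametrically for EC50, and CC50 was taken from multiplexed Cell Titer-Blue.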

[2] = tested on: HCV genotype 1b (Con1) replicon in HUH-7 cells; experiment: HCV replicon luciferase reporter assay, genotype 1b; assay type: cell-based; settings: Hepatitis C virus, Huh-7, 72 h, HCV genotype 1b replicon luciferase, 3 days incubation
Procedure, shortened: as §1

SMILES	EC50 ([1]; read-out: LE_1a (EC50, range)) [nM]	EC50 ([2]; read-out: LE_1b (EC50, range)) [nM]	EC50 ([1]; read-out: LE_1a (EC50)) [nM]	EC50 ([2]; read-out: LE_1b (EC50)) [nM]	EC50 ([1]; GETYPE1A, read-out: LE_1a (EC50, range)) [nM]	EC50 ([2]; GETYPE1B, read-out: LE_1b (EC50, range)) [nM]
[2H]C([2H])([2H])C(C)(OC(=O)N[C@@H]1C(=O)N2C[C@H](Oc3nnc(OC)c4ccccc34)C[C@H]2C(=O)N[C@]2(C(=O)NS(=O)(=O)C3(C)CC3)C[C@H]2/C=C\CC[C@H](C)C[C@H]1CC)C([2H])([2H])[2H] [Compound 5021]	4.82 to 103	< 5.46	–	–	–	–
[2H]C([2H])([2H])C(C)(OC(=O)N[C@@H]1C(=O)N2C[C@H](Oc3nnc(OC)c4ccccc34)C[C@H]2C(=O)N[C@]2(C(=O)NS(=O)(=O)C3(C)CC3)C[C@H]2/C=C\CC[C@@H](C)C[C@H]1CC)C([2H])([2H])[2H] [Compound 5022]	< 5.46	< 5.46	–	–	–	–
CC[C@@H]1C[C@@H](C)CC/C=C\[C@@H]2C[C@@]2(C(=O)NS(=O)(=O)C2(C)CC2)NC(=O)[C@@H]2C[C@@H](Oc3nnc(OC)c4ccccc34)CN2C(=O)[C@H]1NC(=O)NC(C)(C)C [Compound 5023, (2R,6S,7R,9S,13aS,14aR,16aS,Z)-6-(3-(tert-butyl)ureido)-7-ethyl-2-((4-methoxyphthalazin-1-yl)oxy)-9-methyl-N-((1-methylcyclopropyl)sulfonyl)-5,16-dioxo-1,2,3,5,6,7,8,9,10,11,13a,14,14a,15,16,16a-hexadecahydrocyclopropa[e]pyrrolo[1,2-a][1,4]diazacyclopentadecine-14a-carboxamide]	4.82 to 103	4.82 to 103	16	24.6	–	–
CC[C@@H]1C[C@H](C)CC/C=C\[C@@H]2C[C@@]2(C(=O)NS(=O)(=O)C2(C)CC2)NC(=O)[C@@H]2C[C@@H](Oc3nnc(OC)c4ccccc34)CN2C(=O)[C@H]1NC(=O)NC(C)(C)C [Compound 5024, (2R,6S,7R,9R,13aS,14aR,16aS,Z)-6-(3-(tert-butyl)ureido)-7-ethyl-2-((4-methoxyphthalazin-1-yl)oxy)-9-methyl-N-((1-methylcyclopropyl)sulfonyl)-5,16-dioxo-1,2,3,5,6,7,8,9,10,11,13a,14,14a,15,16,16a-hexadecahydrocyclopropa[e]pyrrolo[1,2-a][1,4]diazacyclopentadecine-14a-carboxamide]	< 5.46	< 5.46	–	–	–	–
CC[C@@H]1C[C@@H](C)CC/C=C\[C@@H]2C[C@@]2(C(=O)NS(=O)(=O)C2(C)CC2)NC(=O)[C@@H]2C[C@@H](Oc3nnc(OC)c4ccccc34)CN2C(=O)[C@H]1NC(=O)OC(C)(C)C [Compound 5025, tert-butyl ((2R,6S,7R,9S,13aS,14aR,16aS,Z)-7-ethyl-2-((4-methoxyphthalazin-1-yl)oxy)-9-methyl-14a-(((1-methylcyclopropyl)sulfonyl)carbamoyl)-5,16-dioxo-1,2,3,5,6,7,8,9,10,11,13a,14,14a,15,16,16a-hexadecahydrocyclopropa[e]pyrrolo[1,2-a][1,4]diazacyclopentadecin-6-yl)carbamate]	4.82 to 103	< 5.46	–	–	–	–
CC[C@@H]1C[C@H](C)CC/C=C\[C@@H]2C[C@@]2(C(=O)NS(=O)(=O)C2(C)CC2)NC(=O)[C@@H]2C[C@@H](Oc3nnc(OC)c4ccccc34)CN2C(=O)[C@H]1NC(=O)OC(C)(C)C [Compound 5026, tert-butyl ((2R,6S,7R,9R,13aS,14aR,16aS,Z)-7-ethyl-2-((4-methoxyphthalazin-1-yl)oxy)-9-methyl-14a-(((1-methylcyclopropyl)sulfonyl)carbamoyl)-5,16-dioxo-1,2,3,5,6,7,8,9,10,11,13a,14,14a,15,16,16a-hexadecahydrocyclopropa[e]pyrrolo[1,2-a][1,4]diazacyclopentadecin-6-yl)carbamate]	< 5.46	< 5.46	–	–	–	–
COc1nnc(O[C@@H]2C[C@H]3C(=O)N[C@]4(C(=O)NS(=O)(=O)C5(CF)CC5)C[C@H]4/C=C\CC[C@@H](C)C[C@@H](C)[C@H](NC(=O)OC(C)(C)C(F)(F)F)C(=O)N3C2)c2ccccc12 [Compound 5027]	–	–	–	–	< 5.46	< 5.46
CCOc1nnc(O[C@@H]2C[C@H]3C(=O)N[C@]4(C(=O)NS(=O)(=O)C5(C)CC5)C[C@H]4/C=C\CC[C@H](C)C[C@@H](C)[C@H](NC(=O)OC(C)(C)C)C(=O)N3C2)c2ccccc12 [Compound 5028, tert-butyl ((2R,6S,7R,9S,13aS,14aR,16aS,Z)-2-((4-ethoxyphthalazine-1-yl)oxy)-7,9-dimethyl-14a-(((1-methylcyclopropyl)sulfonyl)carbamoyl)-5,16-dioxo-1,2,3,5,6,7,8,9,10,11,13a,14,14a,15,16,16a-hexadecahydrocyclopropa[e]pyrrolo[1,2-a][1,4]diazacyclopentadecin-6-yl)carbamate]	4.82 to 103	< 5.46	6.28	2.96	–	–
CCOc1nnc(O[C@@H]2C[C@H]3C(=O)N[C@]4(C(=O)NS(=O)(=O)C5(C)CC5)C[C@H]4/C=C\CC[C@@H](C)C[C@@H](C)[C@H](NC(=O)OC(C)(C)C)C(=O)N3C2)c2ccccc12 [Compound 5029, tert-butyl ((2R,6S,7R,9R,13aS,14aR,16aS,Z)-2-((4-ethoxyphthalazin-1-yl)oxy)-7,9-dimethyl-14a-(((1-methylcyclopropyl)sulfonyl)carbamoyl)-5,16-dioxo-1,2,3,5,6,7,8,9,10,11,13a,14,14a,15,16,16a-hexadecahydrocyclopropa[e]pyrrolo[1,2-a][1,4]diazacyclopentadecin-6-yl)carbamate]	< 5.46	< 5.46	–	–	–	–
CCOc1nnc(O[C@@H]2C[C@H]3C(=O)N[C@]4(C(=O)NS(=O)(=O)C5(C)CC5)C[C@H]4/C=C\CC[C@H](C)C[C@@H](C)[C@H](NC(=O)OC(C)(C)C(F)(F)F)C(=O)N3C2)c2ccccc12 [Compound 5030, 1,1,1-trifluoro-2-methylpropan-2-yl((2R,6S,7R,9S,13aS,14aR,16aS,Z)-2-((4-ethoxyphthalazin-1-yl)oxy)-7,9-dimethyl-14a-(((1-methylcyclopropyl)sulfonyl)carbamoyl)-5,16-dioxo-1,2,3,5,6,7,8,9,10,11,13a,14,14a,15,16,16a-hexadecahydrocyclopropa[e]pyrrolo[1,2-a][1,4]diazacyclopentadecin-6-yl)carbamate]	4.82 to 103	4.82 to 103	–	–	–	–
CCOc1nnc(O[C@@H]2C[C@H]3C(=O)N[C@]4(C(=O)NS(=O)(=O)C5(C)CC5)C[C@H]4/C=C\CC[C@@H](C)C[C@@H](C)[C@H](NC(=O)OC(C)(C)C(F)(F)F)C(=O)N3C2)c2ccccc12 [Compound 5031, 1,1,1-trifluoro-2-methylpropan-2-yl((2R,6S,7R,9R,13aS,14aR,16aS,Z)-2-((4-ethoxyphthalazin-1-yl)oxy)-7,9-dimethyl-14a-(((1-methylcyclopropyl)sulfonyl)carbamoyl)-5,16-dioxo-1,2,3,5,6,7,8,9,10,11,13a,14,14a,15,16,16a-hexadecahydrocyclopropa[e]pyrrolo[1,2-a][1,4]diazacyclopentadecin-6-yl)carbamate]	< 5.46	< 5.46	–	–	–	–
[2H]C([2H])([2H])C(OC(=O)N[C@@H]1C(=O)N2C[C@H](Oc3nnc(OCC)c4ccccc34)C[C@H]2C(=O)N[C@]2(C(=O)NS(=O)(=O)C3(C)CC3)C[C@H]2/C=C\CC[C@H](C)C[C@H]1C)(C([2H])([2H])[2H])C(F)(F)F [Compound 5032]	4.82 to 103	4.82 to 103	–	–	–	–
[2H]C([2H])([2H])C(OC(=O)N[C@@H]1C(=O)N2C[C@H](Oc3nnc(OCC)c4ccccc34)C[C@H]2C(=O)N[C@]2(C(=O)NS(=O)(=O)C3(C)CC3)C[C@H]2/C=C\CC[C@@H](C)C[C@H]1C)(C([2H])([2H])[2H])C(F)(F)F [Compound 5033]	< 5.46	< 5.46	–	–	–	–
